The results in this text go back to ChEMBL document CHEMBL1140644, “New modifications to the area of pyrazole-naphthyl urea based p38 MAP kinase inhibitors that bind to the adenine/ATP site” (Bioorg Med Chem Lett, 2007).

The target in series [1] is Tyrosine-protein kinase ABL1 (Homo sapiens, UniProt P00519). In words: Inhibition of Abl.
Series [2] deals with RAF proto-oncogene serine/threonine-protein kinase (Homo sapiens, UniProt P04049). Briefly: Inhibition of cRaf.
In a further series the test system is Blood. In words: Inhibition of LPS-induced TNFalpha production in human whole blood. The series is classed as functional, tissue-based.
The subject of a further series is THP-1. In words: Inhibition of LPS-induced TNFalpha production in THP1 cells. The series is classed as functional, cell-based. Particulars: Homo sapiens.
Series [3] addresses Tyrosine-protein kinase Lyn (Homo sapiens, UniProt P07948). Briefly: Inhibition of Lyn.
For series [4], the system named is Mus musculus. Briefly: Inhibition of LPS-induced TNFalpha production in mouse at 10 mg/kg after 1 hr. The series is classed as functional.
Series [5] concerns the target Mitogen-activated protein kinase 9 (Homo sapiens, UniProt P45984). Briefly: Inhibition of Jnk2.
Series [6] can be described thus: Lipophilicity, log D at pH 7.4. The series is classed as physicochemical. Conditions: buffer.
In series [7] the test system is Mus musculus. Briefly: Inhibition of LPS-induced TNFalpha production in mouse at 3 mg/kg after 1 hr. The series is classed as functional.
Series [8] concerns the target Proto-oncogene tyrosine-protein kinase Src (Homo sapiens, UniProt P12931). In words: Inhibition of Src.
Another series is filed under the species Homo sapiens. In words: Protein binding in human plasma by equilibrium dialysis. Conditions: read-out: PPB. Background: In equilibrium dialysis free small molecules cross a membrane that holds back macromolecules.

Calls of active or inactive are those of the source. No cut-off for these calls is given here.

Chain of RAF proto-oncogene serine/threonine-protein kinase (P04049 whole entry): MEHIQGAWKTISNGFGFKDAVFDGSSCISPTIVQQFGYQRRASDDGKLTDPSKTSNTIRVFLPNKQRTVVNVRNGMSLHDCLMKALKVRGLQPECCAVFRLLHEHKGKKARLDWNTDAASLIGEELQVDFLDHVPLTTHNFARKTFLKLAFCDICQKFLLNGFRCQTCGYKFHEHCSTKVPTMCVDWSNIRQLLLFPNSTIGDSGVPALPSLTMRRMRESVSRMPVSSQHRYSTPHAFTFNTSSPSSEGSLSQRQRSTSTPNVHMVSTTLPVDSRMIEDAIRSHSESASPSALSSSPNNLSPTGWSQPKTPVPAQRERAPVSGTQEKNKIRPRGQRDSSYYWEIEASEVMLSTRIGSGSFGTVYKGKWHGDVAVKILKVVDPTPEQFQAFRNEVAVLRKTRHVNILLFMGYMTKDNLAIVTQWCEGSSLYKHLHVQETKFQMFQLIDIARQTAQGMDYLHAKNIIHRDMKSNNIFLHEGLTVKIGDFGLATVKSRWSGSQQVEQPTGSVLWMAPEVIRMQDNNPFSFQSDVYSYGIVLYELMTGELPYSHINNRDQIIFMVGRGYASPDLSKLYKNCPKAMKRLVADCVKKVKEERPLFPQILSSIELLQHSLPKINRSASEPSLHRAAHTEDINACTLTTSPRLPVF
Chain of Proto-oncogene tyrosine-protein kinase Src (P12931 2-536 limits assumed): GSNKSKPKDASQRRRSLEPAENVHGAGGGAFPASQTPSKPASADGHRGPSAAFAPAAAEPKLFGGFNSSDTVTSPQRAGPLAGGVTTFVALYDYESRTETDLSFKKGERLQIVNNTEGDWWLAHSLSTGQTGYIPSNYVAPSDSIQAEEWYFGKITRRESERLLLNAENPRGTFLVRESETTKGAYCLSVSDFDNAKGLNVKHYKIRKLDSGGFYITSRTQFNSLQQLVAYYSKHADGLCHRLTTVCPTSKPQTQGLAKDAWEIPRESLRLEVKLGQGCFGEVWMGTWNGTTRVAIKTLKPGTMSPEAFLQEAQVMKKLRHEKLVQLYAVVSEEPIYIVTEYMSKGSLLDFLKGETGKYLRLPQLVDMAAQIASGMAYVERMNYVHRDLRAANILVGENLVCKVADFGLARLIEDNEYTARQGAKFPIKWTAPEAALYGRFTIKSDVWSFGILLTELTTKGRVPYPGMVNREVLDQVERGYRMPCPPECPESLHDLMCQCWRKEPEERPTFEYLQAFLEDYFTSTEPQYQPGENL
Chain of Mitogen-activated protein kinase 9 (P45984 whole entry): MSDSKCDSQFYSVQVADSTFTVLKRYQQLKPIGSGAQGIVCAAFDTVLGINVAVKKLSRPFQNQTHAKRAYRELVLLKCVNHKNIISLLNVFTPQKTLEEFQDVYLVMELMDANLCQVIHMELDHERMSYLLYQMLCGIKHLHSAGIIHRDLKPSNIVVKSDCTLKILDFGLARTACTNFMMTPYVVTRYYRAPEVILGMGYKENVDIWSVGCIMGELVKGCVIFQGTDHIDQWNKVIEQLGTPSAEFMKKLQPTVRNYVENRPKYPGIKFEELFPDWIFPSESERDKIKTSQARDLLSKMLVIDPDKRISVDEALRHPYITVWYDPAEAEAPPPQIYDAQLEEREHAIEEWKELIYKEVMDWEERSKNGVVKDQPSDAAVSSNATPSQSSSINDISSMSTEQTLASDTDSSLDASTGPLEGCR
Chain of Tyrosine-protein kinase ABL1 (P00519 whole entry): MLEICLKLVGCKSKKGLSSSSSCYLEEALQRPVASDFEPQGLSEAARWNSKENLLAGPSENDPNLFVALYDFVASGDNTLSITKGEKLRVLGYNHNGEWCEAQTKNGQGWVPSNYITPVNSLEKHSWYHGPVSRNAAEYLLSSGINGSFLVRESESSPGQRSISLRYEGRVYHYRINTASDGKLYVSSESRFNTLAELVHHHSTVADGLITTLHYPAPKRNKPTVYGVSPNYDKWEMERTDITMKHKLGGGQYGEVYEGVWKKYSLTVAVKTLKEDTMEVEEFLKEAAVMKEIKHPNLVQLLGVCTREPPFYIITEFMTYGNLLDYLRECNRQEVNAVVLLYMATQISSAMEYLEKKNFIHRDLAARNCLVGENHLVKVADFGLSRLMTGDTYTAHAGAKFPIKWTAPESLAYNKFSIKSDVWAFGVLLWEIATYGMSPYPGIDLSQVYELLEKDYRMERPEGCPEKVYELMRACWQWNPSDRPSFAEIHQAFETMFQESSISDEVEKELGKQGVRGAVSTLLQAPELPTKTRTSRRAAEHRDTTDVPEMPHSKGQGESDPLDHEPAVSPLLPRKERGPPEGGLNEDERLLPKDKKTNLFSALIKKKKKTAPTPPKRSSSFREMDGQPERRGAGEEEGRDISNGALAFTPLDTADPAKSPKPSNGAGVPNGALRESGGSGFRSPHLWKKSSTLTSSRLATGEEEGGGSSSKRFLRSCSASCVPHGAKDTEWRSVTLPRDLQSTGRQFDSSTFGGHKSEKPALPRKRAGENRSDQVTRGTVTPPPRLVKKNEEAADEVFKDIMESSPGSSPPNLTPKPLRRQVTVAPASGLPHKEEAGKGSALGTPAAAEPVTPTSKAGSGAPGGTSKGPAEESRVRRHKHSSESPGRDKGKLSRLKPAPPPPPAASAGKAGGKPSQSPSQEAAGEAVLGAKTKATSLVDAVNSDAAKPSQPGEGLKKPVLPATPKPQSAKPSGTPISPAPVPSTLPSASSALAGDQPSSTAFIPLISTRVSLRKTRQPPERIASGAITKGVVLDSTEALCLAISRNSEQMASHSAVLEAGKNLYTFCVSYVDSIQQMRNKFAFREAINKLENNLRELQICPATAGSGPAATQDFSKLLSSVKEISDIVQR
Chain of Tyrosine-protein kinase Lyn (P07948 whole entry): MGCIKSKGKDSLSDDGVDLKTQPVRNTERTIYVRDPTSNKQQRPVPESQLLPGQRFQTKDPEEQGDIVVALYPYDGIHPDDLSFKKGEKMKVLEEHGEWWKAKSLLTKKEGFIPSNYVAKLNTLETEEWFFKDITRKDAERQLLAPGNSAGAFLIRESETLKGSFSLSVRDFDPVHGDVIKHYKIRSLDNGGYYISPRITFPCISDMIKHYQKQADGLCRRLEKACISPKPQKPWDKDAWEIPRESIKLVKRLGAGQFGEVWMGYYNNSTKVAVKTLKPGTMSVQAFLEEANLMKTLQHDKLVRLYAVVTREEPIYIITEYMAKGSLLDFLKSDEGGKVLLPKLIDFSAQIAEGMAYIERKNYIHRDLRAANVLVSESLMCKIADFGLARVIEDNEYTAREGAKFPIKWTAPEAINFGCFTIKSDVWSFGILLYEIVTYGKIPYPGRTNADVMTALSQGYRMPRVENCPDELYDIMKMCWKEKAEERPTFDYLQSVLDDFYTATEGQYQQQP

One may read the IC50 as the point on the concentration scale where inhibition reaches its midpoint. Usually inhibition in vivo stands for the percentage by which the read-out fell short of the control. Read a high inhibition in vivo as strong suppression. By logD is commonly meant the decadic logarithm of the distribution of all forms, ionised or not, between an organic phase and buffer at a given pH. For the compound `Cc1ccc(-n2nc(C(C)(C)C)cc2NC(=O)Nc2ccc(-c3ccc(CN4CCOCC4)nc3)c3ccccc23)cc1`, the IC50 in [1] is 1000 nM; in [2], 400 nM; in the series on Blood, 230 nM; in the series on THP-1 it was 9 nM; in series [3] it was 1000 nM; in [5], 2 nM. In series [8], this compound had an IC50 of 1000 nM. Also, in the series with Mus musculus [4], the inhibition in vivo at 10 mg/kg was determined as 74%. The logD in series [6] came out at 5.2. The result in the series on Mus musculus [7] was inactive.

For `Cc1ccc(-n2nc(C(C)(C)C)cc2NC(=O)Nc2ccc(-c3cccc(CN4CCOCC4)c3)c3ccccc23)cc1`, the half-maximal inhibitory concentration (IC50) with Blood worked out at 3900 nM; in the series on THP-1, 56 nM.

Take `Cc1ccc(-n2nc(C(C)(C)C)cc2NC(=O)Nc2ccc(-c3ccc(CN4CCOCC4)cn3)c3ccccc23)cc1`: the figures for the IC50 in the series with Blood and with THP-1 were 590 nM and 26 nM, respectively. For the same compound, in [6], the pH-dependent lipophilicity (logD) was determined as 5.2.

As for `Cc1ncc(-n2nc(C(C)(C)C)cc2NC(=O)Nc2ccc(-c3ccc(CN4CCOCC4)nc3)c3ccccc23)cn1`, the IC50 with Blood turned out to be 160 nM; with THP-1, 14 nM. The compound further gave an inhibition in vivo at 10 mg/kg in the series on Mus musculus [4] of 95%. The same compound showed an inhibition in vivo at 3 mg/kg in the series on Mus musculus [7] of 85%. In the series listed under Homo sapiens, the fraction unbound is less than 0.03.

Take `Cc1ccc(-n2nc(C(C)(C)C)cc2NC(=O)Nc2ccc(-c3ccc(CCN4CCOCC4)cc3)c3ccccc23)cc1`: the IC50 was 1700 nM in the series on Blood and 56 nM in the series on THP-1.

As to `Cc1ccc(-n2nc(C(C)(C)C)cc2NC(=O)Nc2ccc(-c3ccccc3)c3ccccc23)cc1`, the IC50 in the series on Blood is greater than 15000 nM; in the series on THP-1, 1430 nM.

`Cc1ccc(-n2nc(C(C)(C)C)cc2NC(=O)Nc2ccc(-c3ccc(CN4CCN(C)CC4)cc3)c3ccccc23)cc1`: the half-maximal inhibitory concentration (IC50) in the series with Blood came out at 3600 nM; in the series on THP-1, 46 nM.

`Cc1ccc(-n2nc(C(C)(C)C)cc2NC(=O)Nc2ccc(-c3ccc(N4CCOCC4)cc3)c3ccccc23)cc1`: the results for the IC50 with Blood and with THP-1 were greater than 15000 nM and 470 nM, respectively.

As to `Cc1ccc(-n2nc(C(C)(C)C)cc2NC(=O)Nc2ccc(OCCN3CCOCC3)c3ccccc23)cc1` [DORAMAPIMOD], testing at 10 mg/kg with Mus musculus [4] gave an inhibition in vivo of 63%. The compound further yielded a logD in series [6] of 4.3.

On to `Cc1ccc(-n2nc(C(C)(C)C)cc2NC(=O)Nc2ccc(-c3ccc(CN(C)C)cc3)c3ccccc23)cc1`, for which the figures for the IC50 in the series with Blood and with THP-1 were 9200 nM and 104 nM, respectively.

With `Cc1ccc(-n2nc(C(C)(C)C)cc2NC(=O)Nc2cccc3ccccc23)cc1`, the IC50 with Blood was greater than 15000 nM; in the series with THP-1, 320 nM.

In the case of `Cc1ccc(-n2nc(C(C)(C)C)cc2NC(=O)Nc2ccc(-c3ccc(CN4CCOCC4)nc3)c3ccccc23)cn1`, the figures for the IC50 with Blood and with THP-1 were 200 nM and 11 nM, respectively. The compound also had an inhibition in vivo at 10 mg/kg in the series on Mus musculus [4] of 86%. Testing at 3 mg/kg in the series on Mus musculus [7] gave an inhibition in vivo of 50%.

With `Cc1ccc(-n2nc(C(C)(C)C)cc2NC(=O)Nc2ccc(-c3cccc(N4CCOCC4)c3)c3ccccc23)cc1`, the IC50 in the series with Blood is greater than 15000 nM; in the series with THP-1 it was 1350 nM.

`Cc1ccc(-n2nc(C(C)(C)C)cc2NC(=O)Nc2ccc(-c3ccco3)c3ccccc23)cc1` displayed a half-maximal inhibitory concentration (IC50) in the series with THP-1 of 390 nM.

As for `Cn1cc(-n2nc(C(C)(C)C)cc2NC(=O)Nc2ccc(-c3ccc(CN4CCOCC4)nc3)c3ccccc23)cn1`, the IC50 in the series with Blood is 90 nM; in the series on THP-1, 11 nM. The compound further had an inhibition in vivo at 3 mg/kg with Mus musculus [7] of 73%.

Take `Cc1ccc(-n2nc(C(C)(C)C)cc2NC(=O)Nc2ccc(-c3ccc(CN4CCOCC4)o3)c3ccccc23)cc1`: the values for the IC50 with Blood and in the series on THP-1 were 6400 nM and 70 nM, respectively.

In the case of `Cn1nc(C(C)(C)C)cc1NC(=O)Nc1ccc(-c2ccc(CN3CCOCC3)nc2)c2ccccc12`, the IC50 was 950 nM in the series on Blood and 32 nM in the series on THP-1. Moreover, the outcome with Mus musculus [4] was inactive.

On to `Cc1ccc(-n2nc(C(C)(C)C)cc2NC(=O)Nc2ccc(-c3ccc(CN4CCOCC4)cc3)c3ccccc23)cc1`, for which the IC50 with Blood was 1100 nM; in the series with THP-1, 36 nM.
